Laboratory results published in PubChem BioAssay AID1845200 (Molecular Pharmacology Branch, DTP, NCI, 2023).

System: ASPS-1 complex tumor spheroids, viability
Assay: Anticancer human tumor ASPS-1 cell line growth inhibition;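 further: spheroids exposed to agents for 7 days after 3 days of growth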;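 on viability, T/C: 100% = DMSO vehicle treated spheroids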
Conditions: for IC50: curve of first compound; for viability, T/C: stronger effect = lower value
In short: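 Single agents and combinations were tested on spheroids built from tumor cells plus HUVEC and hMSC, at half-log dilutions starting at or near clinical Cmax, else 10 microM; final DMSO 0.25% (v/v).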

[1] = second compound 0.003 µM, first compound 0.0316 µM
[2] = second compound 0.003 µM, first compound 0.1 µM
[3] = second compound 0.003 µM, first compound 0.316 µM
[4] = second compound 0.003 µM, first compound 1 µM
[5] = second compound 0.003 µM, first compound 3.16 µM
[6] = second compound 0.003 µM, first compound 10 µM
[7] = second compound 0.00949 µM, first compound 0.0316 µM
[8] = second compound 0.00949 µM, first compound 0.1 µM
[9] = second compound 0.00949 µM, first compound 0.316 µM
[10] = second compound 0.00949 µM, first compound 1 µM
[11] = second compound 0.00949 µM, first compound 3.16 µM
[12] = second compound 0.00949 µM, first compound 10 µM
[13] = second compound 0.03 µM, first compound 0.0316 µM
[14] = second compound 0.03 µM, first compound 0.1 µM
[15] = second compound 0.03 µM, first compound 0.316 µM
[16] = second compound 0.03 µM, first compound 1 µM
[17] = second compound 0.03 µM, first compound 3.16 µM
[18] = second compound 0.03 µM, first compound 10 µM
[19] = second compound 0.0949 µM, first compound 0.0316 µM
[20] = second compound 0.0949 µM, first compound 0.1 µM
[21] = second compound 0.0949 µM, first compound 0.316 µM
[22] = second compound 0.0949 µM, first compound 1 µM
[23] = second compound 0.0949 µM, first compound 3.16 µM
[24] = second compound 0.0949 µM, first compound 10 µM
[25] = second compound 0.3 µM, first compound 0.0316 µM
[26] = second compound 0.3 µM, first compound 0.1 µM
[27] = second compound 0.3 µM, first compound 0.316 µM
[28] = second compound 0.3 µM, first compound 1 µM
[29] = second compound 0.3 µM, first compound 3.16 µM
[30] = second compound 0.3 µM, first compound 10 µM
[31] = second compound 30 pM, first compound 0.00949 µM
[32] = second compound 30 pM, first compound 0.03 µM
[33] = second compound 30 pM, first compound 0.0949 µM
[34] = second compound 30 pM, first compound 0.3 µM
[35] = second compound 30 pM, first compound 0.949 µM
[36] = second compound 30 pM, first compound 3 µM
[37] = second compound 94.9 pM, first compound 0.00949 µM
[38] = second compound 94.9 pM, first compound 0.03 µM
[39] = second compound 94.9 pM, first compound 0.0949 µM
[40] = second compound 94.9 pM, first compound 0.3 µM
[41] = second compound 94.9 pM, first compound 0.949 µM
[42] = second compound 94.9 pM, first compound 3 µM
[43] = second compound 0.0003 µM, first compound 0.00949 µM
[44] = second compound 0.0003 µM, first compound 0.03 µM
[45] = second compound 0.0003 µM, first compound 0.0949 µM
[46] = second compound 0.0003 µM, first compound 0.3 µM
[47] = second compound 0.0003 µM, first compound 0.949 µM
[48] = second compound 0.0003 µM, first compound 3 µM
[49] = second compound 0.000949 µM, first compound 0.00949 µM
[50] = second compound 0.000949 µM, first compound 0.03 µM
[51] = second compound 0.000949 µM, first compound 0.0949 µM
[52] = second compound 0.000949 µM, first compound 0.3 µM
[53] = second compound 0.000949 µM, first compound 0.949 µM
[54] = second compound 0.000949 µM, first compound 3 µM
[55] = second compound 0.003 µM, first compound 0.00949 µM
[56] = second compound 0.003 µM, first compound 0.03 µM
[57] = second compound 0.003 µM, first compound 0.0949 µM
[58] = second compound 0.003 µM, first compound 0.3 µM
[59] = second compound 0.003 µM, first compound 0.949 µM
[60] = second compound 0.003 µM, first compound 3 µM

CC(C)n1c(=O)n(C)c2cnc3cc(F)c(-c4ccc(OCCCN5CCCCC5)nc4)cc3c21 + CC[C@@]1(O)C(=O)OCc2c1cc1n(c2=O)Cc2cc3c(CN(C)C)c(O)ccc3nc2-1
IC50 (second compound 0.003 µM): 6680 nM
IC50 (second compound 0.00949 µM): 5200 nM
IC50 (second compound 0.03 µM): 184 nM
IC50 (second compound 0.0949 µM): 161 nM
IC50 (second compound 0.3 µM): 188 nM
viability, T/C [1]: 99.3%
viability, T/C [2]: 99.6%
viability, T/C [3]: 108%
viability, T/C [4]: 98%
viability, T/C [5]: 82.9%
viability, T/C [6]: 32.4%
viability, T/C [7]: 82.9%
viability, T/C [8]: 69.2%
viability, T/C [9]: 71%
viability, T/C [10]: 65.6%
viability, T/C [11]: 67%
viability, T/C [12]: 30.6%
viability, T/C [13]: 61.1%
viability, T/C [14]: 53%
viability, T/C [15]: 48%
viability, T/C [16]: 31.3%
viability, T/C [17]: 33.2%
viability, T/C [18]: 27.1%
viability, T/C [19]: 64.3%
viability, T/C [20]: 54.7%
viability, T/C [21]: 41.8%
viability, T/C [22]: 21.9%
viability, T/C [23]: 22.4%
viability, T/C [24]: 26.1%
viability, T/C [25]: 62.9%
viability, T/C [26]: 60.6%
viability, T/C [27]: 40.9%
viability, T/C [28]: 22%
viability, T/C [29]: 20.9%
viability, T/C [30]: 24.2%

COc1ccc([C@@H](O)c2cc(-c3ncnc4cc(N5CCOCC5)ccc34)c(F)cc2Cl)nn1 + CC[C@@]1(O)C(=O)OCc2c1cc1n(c2=O)Cc2cc3c(CN(C)C)c(O)ccc3nc2-1
IC50 (second compound 0.003 µM): 8870 nM
IC50 (second compound 0.00949 µM): 6690 nM
IC50 (second compound 0.03 µM): 3020 nM
IC50 (second compound 0.0949 µM): 330 nM
IC50 (second compound 0.3 µM): 214 nM
viability, T/C [1]: 110%
viability, T/C [2]: 106%
viability, T/C [3]: 101%
viability, T/C [4]: 98.1%
viability, T/C [5]: 80.3%
viability, T/C [6]: 46.1%
viability, T/C [7]: 104%
viability, T/C [8]: 104%
viability, T/C [9]: 101%
viability, T/C [10]: 90.2%
viability, T/C [11]: 66.6%
viability, T/C [12]: 41.1%
viability, T/C [13]: 82%
viability, T/C [14]: 87.9%
viability, T/C [15]: 82.8%
viability, T/C [16]: 73.8%
viability, T/C [17]: 49.1%
viability, T/C [18]: 31.9%
viability, T/C [19]: 56.1%
viability, T/C [20]: 54.7%
viability, T/C [21]: 50.6%
viability, T/C [22]: 31.4%
viability, T/C [23]: 22.7%
viability, T/C [24]: 26.1%
viability, T/C [25]: 62.5%
viability, T/C [26]: 58.4%
viability, T/C [27]: 45.7%
viability, T/C [28]: 32.4%
viability, T/C [29]: 23.9%
viability, T/C [30]: 16.4%

CNCc1ccc(-c2cc(-c3nc(-c4ccc(S(=O)(=O)C(C)C)cc4)cnc3N)on2)cc1 + COc1cc2c(cc1O)CCNC21CSC2c3c(OC(C)=O)c(C)c4c(c3C(COC1=O)N1C(O)C3Cc5cc(C)c(OC)c(O)c5C(C21)N3C)OCO4
IC50 (second compound 30 pM): 922 nM
IC50 (second compound 94.9 pM): 857 nM
IC50 (second compound 0.0003 µM): 552 nM
IC50 (second compound 0.000949 µM): 185 nM
IC50 (second compound 0.003 µM): < 9.49 nM
viability, T/C [31]: 109%
viability, T/C [32]: 104%
viability, T/C [33]: 105%
viability, T/C [34]: 74.3%
viability, T/C [35]: 51.9%
viability, T/C [36]: 14.9%
viability, T/C [37]: 106%
viability, T/C [38]: 108%
viability, T/C [39]: 108%
viability, T/C [40]: 80.8%
viability, T/C [41]: 48.3%
viability, T/C [42]: 9.57%
viability, T/C [43]: 106%
viability, T/C [44]: 111%
viability, T/C [45]: 102%
viability, T/C [46]: 66.4%
viability, T/C [47]: 34.7%
viability, T/C [48]: 5.83%
viability, T/C [49]: 85.8%
viability, T/C [50]: 83%
viability, T/C [51]: 64.9%
viability, T/C [52]: 36.1%
viability, T/C [53]: 20.2%
viability, T/C [54]: 1.09%
viability, T/C [55]: 16.9%
viability, T/C [56]: 24.3%
viability, T/C [57]: 15.2%
viability, T/C [58]: 2.85%
viability, T/C [59]: 0.66%
viability, T/C [60]: 0.65%

Cn1ncnc1[C@H]1c2n[nH]c(=O)c3cc(F)cc(c23)N[C@@H]1c1ccc(F)cc1 + COc1cc2c(cc1O)CCNC21CSC2c3c(OC(C)=O)c(C)c4c(c3C(COC1=O)N1C(O)C3Cc5cc(C)c(OC)c(O)c5C(C21)N3C)OCO4
IC50 (second compound 30 pM): > 3000 nM
IC50 (second compound 94.9 pM): > 3000 nM
IC50 (second compound 0.0003 µM): 2230 nM
IC50 (second compound 0.000949 µM): 562 nM
IC50 (second compound 0.003 µM): < 9.49 nM
viability, T/C [31]: 102%
viability, T/C [32]: 93.8%
viability, T/C [33]: 101%
viability, T/C [34]: 101%
viability, T/C [35]: 89.3%
viability, T/C [36]: 62.8%
viability, T/C [37]: 97.3%
viability, T/C [38]: 97.2%
viability, T/C [39]: 98%
viability, T/C [40]: 94%
viability, T/C [41]: 88.8%
viability, T/C [42]: 57.5%
viability, T/C [43]: 86%
viability, T/C [44]: 89.8%
viability, T/C [45]: 85.2%
viability, T/C [46]: 83.3%
viability, T/C [47]: 75.4%
viability, T/C [48]: 40.9%
viability, T/C [49]: 70.3%
viability, T/C [50]: 63.5%
viability, T/C [51]: 56.7%
viability, T/C [52]: 59.7%
viability, T/C [53]: 45.1%
viability, T/C [54]: 28.4%
viability, T/C [55]: 21.5%
viability, T/C [56]: 21.8%
viability, T/C [57]: 19.4%
viability, T/C [58]: 16.6%
viability, T/C [59]: 13.3%
viability, T/C [60]: 4.87%

O=C(c1cc(Cc2n[nH]c(=O)c3ccccc23)ccc1F)N1CCN(C(=O)C2CC2)CC1 + COc1cc2c(cc1O)CCNC21CSC2c3c(OC(C)=O)c(C)c4c(c3C(COC1=O)N1C(O)C3Cc5cc(C)c(OC)c(O)c5C(C21)N3C)OCO4
IC50 (second compound 30 pM): 26000 nM
IC50 (second compound 94.9 pM): 22100 nM
IC50 (second compound 0.0003 µM): 13000 nM
IC50 (second compound 0.000949 µM): 2080 nM
IC50 (second compound 0.003 µM): < 94.9 nM
viability, T/C [33]: 114%
viability, T/C [34]: 112%
viability, T/C [35]: 105%
viability, T/C [36]: 107%
viability, T/C (second compound 30 pM, first compound 9.49 µM): 106%
viability, T/C (second compound 30 pM, first compound 30 µM): 42.2%
viability, T/C [39]: 103%
viability, T/C [40]: 103%
viability, T/C [41]: 108%
viability, T/C [42]: 101%
viability, T/C (second compound 94.9 pM, first compound 9.49 µM): 98.6%
viability, T/C (second compound 94.9 pM, first compound 30 µM): 32.5%
viability, T/C [45]: 97.8%
viability, T/C [46]: 106%
viability, T/C [47]: 102%
viability, T/C [48]: 98.5%
viability, T/C (second compound 0.0003 µM, first compound 9.49 µM): 60.3%
viability, T/C (second compound 0.0003 µM, first compound 30 µM): 22.9%
viability, T/C [51]: 73%
viability, T/C [52]: 75.1%
viability, T/C [53]: 59.5%
viability, T/C [54]: 45.3%
viability, T/C (second compound 0.000949 µM, first compound 9.49 µM): 21.5%
viability, T/C (second compound 0.000949 µM, first compound 30 µM): 4.17%
viability, T/C [57]: 21.6%
viability, T/C [58]: 22.4%
viability, T/C [59]: 17.4%
viability, T/C [60]: 12.7%
viability, T/C (second compound 0.003 µM, first compound 9.49 µM): 3.59%
viability, T/C (second compound 0.003 µM, first compound 30 µM): 1.41%
